Laboratory results published in patent publication US20100029636A1, “Lck inhibitors” (priority 2006, published 2010).

Tests used:
Lck = Lck (Homo sapiens, UniProt P06239); assay: Biochemical Lck kinase assay (TR-FRET, LANCE)
[1] = system: blood IL-2 levels induced by SEB; assay: In vivo model: mouse SEB/IL-2; set-up: species or system BALB/c mice; details: 100 mg/kg po, serum IL-2 two hours after SEB
Experimental: The compound to be tested is administered to BALB/c mice followed e.g. 1 h later, by an intravenous administration of 3 µg per mouse of SEB to induce a rise in blood IL-2 levels. Two hours after the administration of SEB, mice are bled, and levels of IL-2 are measured in the serum using standard methods. Under control conditions (vehicle only) IL-2 concentrations measured are mostly in the range of 2000 to 8000 pg/ml.

Chain of Lck (P06239 whole entry, species assumed): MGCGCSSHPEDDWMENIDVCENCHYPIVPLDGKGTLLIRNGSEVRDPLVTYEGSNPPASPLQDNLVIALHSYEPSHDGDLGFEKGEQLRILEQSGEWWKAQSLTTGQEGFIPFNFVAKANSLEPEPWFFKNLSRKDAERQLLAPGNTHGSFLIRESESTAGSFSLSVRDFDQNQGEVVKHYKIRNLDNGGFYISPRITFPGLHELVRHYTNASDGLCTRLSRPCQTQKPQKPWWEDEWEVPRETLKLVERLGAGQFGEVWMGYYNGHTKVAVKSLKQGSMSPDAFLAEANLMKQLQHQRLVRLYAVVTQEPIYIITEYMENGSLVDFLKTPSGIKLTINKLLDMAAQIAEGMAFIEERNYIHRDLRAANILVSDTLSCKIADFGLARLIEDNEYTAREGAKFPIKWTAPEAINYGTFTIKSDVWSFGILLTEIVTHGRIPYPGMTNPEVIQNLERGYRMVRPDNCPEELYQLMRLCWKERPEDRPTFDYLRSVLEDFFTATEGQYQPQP

SMILES | IC50 (Lck) [nM] | inhibits the secretion of IL-2 [1] [%]
Cc1ccc([C@H](C)NC(=O)Nc2ccc(-c3cnc4c(-c5cccc(N6CCN(C)CC6)c5)cnn4c3N)cc2)cc1 [Example 172] | 34 | 
CCc1ccc(OC(=O)Nc2ccc(-c3cnc4c(-c5cccc(N6CCN(C)CC6)c5)cnn4c3N)cc2)cc1 [Example 77] | 25 | 
CC(C)COC(=O)Nc1ccc(-c2cnc3c(-c4ccc(N5CCN(C)CC5)cc4)cnn3c2N)cc1 [Example 10, (4-{7-Amino-3-[4-(4-methyl-piperazin-1-yl)-phenyl]-pyrazolo[1,5-a]pyrimidin-6-yl}-phenyl)-carbamic acid isobutyl ester] | 10 | 59
Cc1ccc(NC(=O)Nc2ccc(-c3cnc4c(-c5cccc(N6CCN(C)CC6)c5)cnn4c3N)cc2)cc1 [Example 126] | 15 | 
Cc1cccc(OC(=O)Nc2ccc(-c3cnc4c(-c5cccc(N6CCN(C)CC6)c5)cnn4c3N)cc2)c1C [Example 65] | 25 | 
